{"source": "patent US7405214B2", "about": "“Nucleoside derivatives and therapeutic use thereof” (Rexahn Corporation, priority 2004, dated 2008)", "key": {"[1]": {"tested_on": "MDA-MB-231 (breast)", "assay": "SRB cell growth inhibition assay, MDA-MB-231", "assay_type": "cell-based", "conditions": "Homo sapiens, MDA-MB-231, 96 hours", "source_text": "(§1) Cancer cell lines to determine the effect of nucleoside compounds were obtained from the following sources: Human OVCAR-3 (ovary), MCF-7 (breast, hormone-dependent), MDA-MB-231 (breast), HeLa (cervix), PC3 (prostate), LNCap (prostate), HepG2 (liver), A549 (lung), NCI-H226 (lung), HT-29 (colon), HCT116 (colon), SK-MEL-28 (melanoma) and PANC-1 (pancreas) from the American Type Culture Collection (ATCC) (Manassas, Va.); U251 (brain) from Riken (Japan); MKN-45 (stomach) from DSMZ (Germany); UMRC2 (kidney) from the United States National Cancer Institute (Bethesda, Md.). […]\n(§2) The growth inhibition assay of RX-3117 against 16 human tumor cell lines was performed using the Sulforhodamine B (“SRB”) method (Skehan et al., J. National Cancer Institute, 82: 1107-1112 (1990)). […] After 5 minutes agitation in 10 mM Tris solution, the absorbance of each well was measured at 530 nm using Benchmark Plus Microplate reader (Bio-Rad Laboratories, Hercules, Calif.).\n(§3) To translate the OD530 values into the number of live cells in each well, the OD530 values were compared to those on standard OD530—versus—cell number curves generated for each cell line. The percent survival was calculated using the formula: % Survival=live cell number[test]/live cell number[control]×100\n(§4) The IC50 values were calculated by non-linear regression analysis."}, "[2]": {"tested_on": "HCT116 (colon)", "assay": "SRB cell growth inhibition assay, HCT116", "assay_type": "cell-based", "conditions": "Homo sapiens, HCT-116, HCT116, 96 hours", "source_text": "as §1, §2, §3, §4"}, "[3]": {"tested_on": "NCI-H226 (lung)", "assay": "SRB cell growth inhibition assay, NCI-H226", "assay_type": "cell-based", "conditions": "Homo sapiens, NCI-H226, 96 hours", "source_text": "as §1, §2, §3, §4"}, "[4]": {"tested_on": "HT-29 (colon)", "assay": "SRB cell growth inhibition assay, HT-29", "assay_type": "cell-based", "conditions": "Homo sapiens, HT-29, 96 hours", "source_text": "as §1, §2, §3, §4"}, "[5]": {"tested_on": "MKN-45 (stomach)", "assay": "SRB cell growth inhibition assay, MKN-45", "assay_type": "cell-based", "conditions": "Homo sapiens, MKN-45, 96 hours", "source_text": "as §1, §2, §3, §4"}, "[6]": {"tested_on": "MCF-7 (breast, hormone-dependent)", "assay": "SRB cell growth inhibition assay, MCF-7", "assay_type": "cell-based", "conditions": "Homo sapiens, MCF7, MCF-7, 96 hours", "source_text": "as §1, §2, §3, §4"}, "[7]": {"tested_on": "A549 (lung)", "assay": "SRB cell growth inhibition assay, A549", "assay_type": "cell-based", "conditions": "Homo sapiens, A549, 96 hours", "source_text": "as §1, §2, §3, §4"}, "[8]": {"tested_on": "PANC-1 (pancreas)", "assay": "SRB cell growth inhibition assay, PANC-1", "assay_type": "cell-based", "conditions": "Homo sapiens, PANC-1, 96 hours", "source_text": "as §1, §2, §3, §4"}, "[9]": {"tested_on": "PC3 (prostate)", "assay": "SRB cell growth inhibition assay, PC3", "assay_type": "cell-based", "conditions": "Homo sapiens, PC3, 96 hours", "source_text": "as §1, §2, §3, §4"}, "[10]": {"tested_on": "HepG2 (liver)", "assay": "SRB cell growth inhibition assay, HepG2", "assay_type": "cell-based", "conditions": "Homo sapiens, HepG2, 96 hours", "source_text": "as §1, §2, §3, §4"}, "[11]": {"tested_on": "OVCAR-3 (ovary)", "assay": "SRB cell growth inhibition assay, OVCAR-3", "assay_type": "cell-based", "conditions": "Homo sapiens, OVCAR-3, 96 hours", "source_text": "as §1, §2, §3, §4"}, "[12]": {"tested_on": "U251 (brain)", "assay": "SRB cell growth inhibition assay, U251", "assay_type": "cell-based", "conditions": "Homo sapiens, U-251, U251, 96 hours", "source_text": "as §1, §2, §3, §4"}, "[13]": {"tested_on": "UMRC2 (kidney)", "assay": "SRB cell growth inhibition assay, UMRC2", "assay_type": "cell-based", "conditions": "Homo sapiens, UMRC2, 96 hours", "source_text": "as §1, §2, §3, §4"}, "[14]": {"tested_on": "HeLa (cervix)", "assay": "SRB cell growth inhibition assay, HeLa", "assay_type": "cell-based", "conditions": "Homo sapiens, 96 hours", "source_text": "as §1, §2, §3, §4"}, "[15]": {"tested_on": "SK-MEL-28 (melanoma)", "assay": "SRB cell growth inhibition assay, SK-MEL-28", "assay_type": "cell-based", "conditions": "Homo sapiens, SK-MEL-28, 96 hours", "source_text": "as §1, §2, §3, §4"}, "[16]": {"tested_on": "LnCap (prostate)", "assay": "SRB cell growth inhibition assay, LnCap", "assay_type": "cell-based", "conditions": "Homo sapiens, 96 hours", "source_text": "as §1, §2, §3, §4"}, "[17]": {"tested_on": "HCT116 human colon carcinoma xenografts", "assay": "Xenograft study in nude mice", "assay_type": "in vivo", "conditions": "intraperitoneal, three times per week day 5 to day 37; for tumor volume compared to the controls: after day 37", "procedure": "In order to observe the inhibition of growth of tumor in an animal model, an […] xenograft study of nude mice was conducted utilizing RX-3117. Suitable human cancer cell lines are those that have been tested already for inhibition of cancer cell growth, and particularly preferred was colon carcinoma HCT116. The antitumor efficacy of RX-3117 was evaluated against subcutaneously injected tumor xenografts in nude mice and tumor volume was measured after the treatment of RX-3117.\nHCT116 cell suspension (2×10^6 cells in 0.1 ml of RPMI) was injected subcutaneously into the right flank of six-week-old male athymic mice (BALB/c nu/nu) on day 0. A sufficient number of mice were injected with HCT116 cell suspension so that tumors in a volume range as narrow as possible were selected for the trial on the day of treatment initiation. Animals with tumors in the proper size range were assigned to various treatment groups. RX-3117 was dissolved in 10% DMSO in PBS and solvent alone served as control. All study medications (control, RX-3117: 2 mg/kg/day, RX-3117: 10 mg/kg/day) were given by intraperitoneal injections three times per week starting from day 5 and ending on day 37. To quantify tumor growth, three perpendicular diameters of the tumors were measured with calipers every 3-5 days, and the body weight of the mice was monitored for toxicity. The tumor volume was calculated using the formula: tumor volume (mm^3)=(width)×(length)×(height)×π/6."}}, "data": [{"smiles": "Nc1ccn([C@@H]2C(F)=C(CO)[C@@H](O)[C@H]2O)c(=O)n1", "note": "[RX-3117, (1S,4R,5S)-4-Amino-1-(2-fluoro-4,5-dihydroxy-3-hydroxymethyl-cyclopent-2-enyl)-1H-pyrimidin-2-one]", "values": [{"measurement": "IC50", "setting": "[1]", "value": 0.18, "unit": "µM"}, {"measurement": "IC50", "setting": "[2]", "value": 0.19, "unit": "µM"}, {"measurement": "IC50", "setting": "[3]", "value": 0.25, "unit": "µM"}, {"measurement": "IC50", "setting": "[4]", "value": 0.28, "unit": "µM"}, {"measurement": "IC50", "setting": "[5]", "value": 0.34, "unit": "µM"}, {"measurement": "IC50", "setting": "[6]", "value": 0.34, "unit": "µM"}, {"measurement": "IC50", "setting": "[7]", "value": 0.5, "unit": "µM"}, {"measurement": "IC50", "setting": "[8]", "value": 0.62, "unit": "µM"}, {"measurement": "IC50", "setting": "[9]", "value": 0.63, "unit": "µM"}, {"measurement": "IC50", "setting": "[10]", "value": 0.79, "unit": "µM"}, {"measurement": "IC50", "setting": "[11]", "value": 0.8, "unit": "µM"}, {"measurement": "IC50", "setting": "[12]", "value": 0.83, "unit": "µM"}, {"measurement": "IC50", "setting": "[13]", "value": 0.83, "unit": "µM"}, {"measurement": "IC50", "setting": "[14]", "value": 1.35, "unit": "µM"}, {"measurement": "IC50", "setting": "[15]", "value": 1.38, "unit": "µM"}, {"measurement": "IC50", "setting": "[16]", "value": 2.67, "unit": "µM"}, {"measurement": "tumor volume compared to the controls", "setting": "[17]; 2 mg/kg/day", "value": "significantly reduced"}, {"measurement": "tumor volume compared to the controls", "setting": "[17]; 10 mg/kg/day", "value": "significantly reduced"}, {"measurement": "body weight fluctuations", "setting": "[17]; 2 and 10 mg/kg/day", "value": "no more than 1 g"}]}]}
